Results on 8 compounds are retold here after patent publication EP4653440A1, “HETEROCYCLIC COMPOUND, AND PHARMACEUTICAL COMPOSITION AND USE THEREOF” (Prime Gene Therapeutics Co., Ltd., priority 2023, dated 2024).

By IC50 is commonly meant the concentration that gives 50% inhibition. Usually pIC50 stands for the negative decadic logarithm of the IC50, by convention in mol/L.

The target in one experiment is ROCK1 (Homo sapiens, UniProt Q13464). As to the kind of experiment: ROCK1 kinase enzymatic activity (HTRF, STK2 substrate). Format: biochemical. The following applies: ROCK1 kinase reaction 20 minutes at room temperature. From the text:
(§1) The kinase activity data was expressed by comparing the kinase activity of the test compound and that of the blank group (containing only DMSO), and the IC50 value was obtained by curve fitting using Prism software (GraphPad7.0).
In general terms: TR-FRET usually uses a lanthanide donor and a delayed reading to cut background.

For another experiment, the target named is ROCK2 (Homo sapiens, UniProt O75116). The experiment in a line: ROCK2 kinase enzymatic activity (HTRF, STK2 substrate). In kind it is biochemical. The following applies: ROCK2 kinase reaction 30 minutes at room temperature.
Sequence of ROCK2 (O75116 whole entry): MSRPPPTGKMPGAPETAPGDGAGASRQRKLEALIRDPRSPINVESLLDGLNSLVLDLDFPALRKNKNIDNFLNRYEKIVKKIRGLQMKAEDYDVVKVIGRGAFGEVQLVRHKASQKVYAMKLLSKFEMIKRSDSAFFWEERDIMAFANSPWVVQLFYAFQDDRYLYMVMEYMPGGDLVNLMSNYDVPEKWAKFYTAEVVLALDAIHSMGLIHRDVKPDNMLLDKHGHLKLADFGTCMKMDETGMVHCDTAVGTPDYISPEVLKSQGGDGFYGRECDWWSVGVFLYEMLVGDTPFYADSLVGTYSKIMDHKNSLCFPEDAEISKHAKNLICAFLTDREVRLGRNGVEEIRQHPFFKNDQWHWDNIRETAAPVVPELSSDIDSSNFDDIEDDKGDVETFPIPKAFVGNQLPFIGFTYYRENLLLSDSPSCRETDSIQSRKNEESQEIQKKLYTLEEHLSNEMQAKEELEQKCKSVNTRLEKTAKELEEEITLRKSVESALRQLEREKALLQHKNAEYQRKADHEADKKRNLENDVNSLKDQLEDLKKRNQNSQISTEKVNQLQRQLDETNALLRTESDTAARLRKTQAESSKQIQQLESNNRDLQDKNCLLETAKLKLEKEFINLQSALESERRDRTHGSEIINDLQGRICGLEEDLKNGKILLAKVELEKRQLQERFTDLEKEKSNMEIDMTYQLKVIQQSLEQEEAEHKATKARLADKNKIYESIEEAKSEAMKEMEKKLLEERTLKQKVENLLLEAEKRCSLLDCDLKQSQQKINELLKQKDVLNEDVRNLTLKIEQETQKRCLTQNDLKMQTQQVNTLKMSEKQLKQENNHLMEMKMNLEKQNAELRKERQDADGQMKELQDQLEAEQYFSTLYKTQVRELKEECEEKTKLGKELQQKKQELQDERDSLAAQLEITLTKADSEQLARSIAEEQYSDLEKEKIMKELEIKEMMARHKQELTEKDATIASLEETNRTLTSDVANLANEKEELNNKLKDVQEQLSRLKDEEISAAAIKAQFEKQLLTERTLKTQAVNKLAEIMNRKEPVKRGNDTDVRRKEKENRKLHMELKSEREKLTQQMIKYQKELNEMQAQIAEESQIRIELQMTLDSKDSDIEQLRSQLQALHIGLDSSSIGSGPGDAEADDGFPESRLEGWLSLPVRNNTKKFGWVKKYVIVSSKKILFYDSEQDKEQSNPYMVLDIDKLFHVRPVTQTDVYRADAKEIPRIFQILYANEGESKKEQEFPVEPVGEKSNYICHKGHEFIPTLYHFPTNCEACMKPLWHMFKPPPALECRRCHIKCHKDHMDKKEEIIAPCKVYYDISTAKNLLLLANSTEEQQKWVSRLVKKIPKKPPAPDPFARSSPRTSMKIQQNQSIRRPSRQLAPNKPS
From the text: as §1

Experiment [1] deals with phosphorylation of myosin light chain T18/S19. As to the kind of experiment: In Cell Western for phosphorylation of myosin light chain in A7r5 cells. In kind it is cell-based, rat. The following applies: Rattus norvegicus, A7R5, 1 h. From the text:
The rat smooth muscle cell line A7r5 was used, and the A7r5 cell culture conditions were DMEM containing 10% FBS. Phspho-MLC-T18/S19 specific antibody and a second detection antibody were used to detect the phosphorylation level of myosin light chain by In Cell Western. Cells treated with positive compounds were used as positive controls, while the group without compounds but with compound solvents was used as negative controls. DRAQ5 stained cell nuclei were used as internal references. GraphPad Prism 7.0 software was used, and fitting was carried out by using a non-linear regression curve with varying slopes to determine the absolute IC50 value.
On the first day, A7r5 cells were resuspended in serum-free medium and seeded into 384 wells of PDL coated transparent black plates at a density of 5000 cells per well. Serum starvation culture was performed for 4 hours, and the cells were incubated with the compound in serum-free medium for 1 hour. 50 µL of 8% PFA (polyformaldehyde) was added to each well and fixed at room temperature for 1 hour. The liquid in the wells was discard and 90 µL of ice methanol was added to each well to permeabilize the cells at 4 °C for 1 hour. Then, PBST (0.1% Tween20-PBS) was added using an automatic separator to wash three times. After patting the plate for drying, 50 µL blocking solution was added to each well for sealing at room temperature for 1 hour. The phspho-MLC-T18/S19 specific antibody was diluted with the blocking solution at a ratio of 1:200. After adding 20 µL to each well, incubation was carried out overnight at 4 °C with a sealed film.
On the second day, the liquid in the wells was discarded and PBST was added using an automatic separator to wash the plate 5 times. After patting the plate for drying, the second detection antibody was diluted with blocking solution at a ratio of 1:800 and DRAQ5 at a ratio of 1:1000. After adding 20 µL to each well, incubation was carried out at room temperature for 1 hour. Then, the liquid in the wells was discarded and PBST was added using an automatic separator to wash the plate 3 times, followed by adding ddH2O to wash the plate 3 times. After patting the plate for drying, it was scaned using a LICOR Odyssey near-infrared imaging scanner.

In experiment [2] the test system is Norwegian rat glaucoma model induced by hypertonic saline solution. The experiment in a line: Norwegian rat glaucoma model induced by hypertonic saline solution (intraocular pressure). The note with it: 0.02% eye drops once a day, one drop; compared with model control group; 0 to 24 hours after administration. Format: in vivo. From the text: Experimental method: after animal anesthesia, the lateral canthus of the right eye was incised, and a polypropylene ring was placed at the equator of the eyeball, with the notch of the ring located in the upper quadrant of the eyeball, leaving only one scleral surface vein above. […] After injection, the polypropylene ring was removed and antibiotic eye ointment was applied to the operated eye.
After modeling, a rebound tonometer was used continuously to measure the intraocular pressure of both eyes, once every 3 days, and the average of 6 measurements was took each time and recorded; After the intraocular pressure had been stabilized (about 20 days later), the subjects were randomly divided into three groups based on the most recent measurement of intraocular pressure and body weight: sham surgery group, model control group, and test drug group (0.02% Example 29) group, with 5 animals in each group. After grouping, eye drops were administered once a day, with one drop per time. During the administration period, dynamic intraocular pressure was measured once a week (detecting the intraocular pressure change curve from 0 to 24 hours after administration) until the end of the experiment.

pIC50: −log10 of the molar value.

Sequence of ROCK1 (Q13464 whole entry): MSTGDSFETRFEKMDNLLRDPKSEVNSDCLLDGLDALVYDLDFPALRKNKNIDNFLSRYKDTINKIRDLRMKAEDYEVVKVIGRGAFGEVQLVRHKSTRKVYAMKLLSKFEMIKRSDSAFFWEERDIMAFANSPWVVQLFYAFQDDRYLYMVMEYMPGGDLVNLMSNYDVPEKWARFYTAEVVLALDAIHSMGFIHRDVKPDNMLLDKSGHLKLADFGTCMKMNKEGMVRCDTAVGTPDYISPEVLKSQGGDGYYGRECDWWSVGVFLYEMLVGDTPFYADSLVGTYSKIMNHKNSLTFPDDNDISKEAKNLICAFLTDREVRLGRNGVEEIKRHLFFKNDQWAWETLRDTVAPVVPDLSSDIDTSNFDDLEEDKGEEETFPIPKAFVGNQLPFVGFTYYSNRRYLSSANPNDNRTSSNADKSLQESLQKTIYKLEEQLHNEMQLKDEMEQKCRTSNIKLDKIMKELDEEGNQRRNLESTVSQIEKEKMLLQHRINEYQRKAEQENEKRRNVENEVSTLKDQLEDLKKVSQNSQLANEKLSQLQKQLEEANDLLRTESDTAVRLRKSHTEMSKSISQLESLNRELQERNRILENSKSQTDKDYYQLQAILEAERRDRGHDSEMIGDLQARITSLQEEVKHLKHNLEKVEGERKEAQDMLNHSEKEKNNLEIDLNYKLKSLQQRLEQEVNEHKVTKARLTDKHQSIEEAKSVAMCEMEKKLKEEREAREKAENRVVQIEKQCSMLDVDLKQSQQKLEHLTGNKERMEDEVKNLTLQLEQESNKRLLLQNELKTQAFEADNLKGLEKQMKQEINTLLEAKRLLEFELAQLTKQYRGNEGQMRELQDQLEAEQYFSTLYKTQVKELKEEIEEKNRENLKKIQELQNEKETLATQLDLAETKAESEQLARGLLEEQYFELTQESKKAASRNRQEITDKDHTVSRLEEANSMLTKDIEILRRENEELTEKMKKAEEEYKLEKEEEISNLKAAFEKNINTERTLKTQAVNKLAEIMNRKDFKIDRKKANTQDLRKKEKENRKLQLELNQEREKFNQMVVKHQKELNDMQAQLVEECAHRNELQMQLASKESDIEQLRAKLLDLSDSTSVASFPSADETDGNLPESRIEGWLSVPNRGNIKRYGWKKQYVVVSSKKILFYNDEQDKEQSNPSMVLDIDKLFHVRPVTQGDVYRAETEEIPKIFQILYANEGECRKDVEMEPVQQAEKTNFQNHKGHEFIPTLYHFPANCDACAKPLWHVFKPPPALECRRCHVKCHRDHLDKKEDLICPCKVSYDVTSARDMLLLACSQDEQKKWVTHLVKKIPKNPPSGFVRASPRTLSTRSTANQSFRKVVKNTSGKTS

Turning to `N#CCC(C1CCC2(CC2)C1)n1cc(-c2ncnc3[nH]ccc23)c(N)n1` (stereo not shown) [Example 23, 3-(3-amino-4-(7H-pyrrolo[2,3-d]pyrimidin-4-yl)-1H-pyrazol-1-yl)-3-(spiro[2.4]hept-5-yl)propionitrile], the IC50 on ROCK1 and at ROCK2 was less than 5 nM in each case. The compound also gave a negative logarithm of the IC50 (pIC50) in experiment [1] of 6.71.
Turning to `N#CCC(C1CC2CC2C1)n1cc(-c2ncnc3[nH]ccc23)c(N)n1` (stereo not shown) [Example 24, 3-(3-amino-4-(7H-pyrrolo[2,3-d]pyrimidin-4-yl)-1H-pyrazol-1-yl)-3-(bicyclo[3.1.0]hexyl-3-yl)propionitrile], the IC50 against ROCK1 and against ROCK2 was less than 5 nM each time. Besides, in experiment [1], the pIC50 is 6.67.
Take `N#CC[C@H](C1CC1)n1cc(-c2ncnc3[nH]ccc23)c(N)n1` [Example 25, (R)-3-(3-amino-4-(7H-pyrrolo[2,3-d]pyrimidin-4-yl)-1H-pyrazol-1-yl)-3-cyclopropylpropionitrile]: the half-maximal inhibitory concentration (IC50) on ROCK1 is less than 5 nM; against ROCK2, less than 2 nM. Also, the negative logarithm of the IC50 (pIC50) in experiment [1] was 7.12.
The like results for `N#CC[C@@H](C1CC1)n1cc(-c2ncnc3[nH]ccc23)c(N)n1` [Example 26, (S)-3-(3-amino-4-(7H-pyrrolo[2,3-d]pyrimidin-4-yl)-1H-pyrazol-1-yl)-3-cyclopropylpropionitrile] were, in that order, less than 5 nM, less than 2 nM and 7.06.
On the same counts, the results for `N#CC[C@H](C1CCC1)n1cc(-c2ncnc3[nH]ccc23)c(N)n1` [Example 27, (R)-3-(3-amino-4-(7H-pyrrolo[2,3-d]pyrimidin-4-yl)-1H-pyrazol-1-yl)-3-cyclobutylpropionitrile] are less than 5 nM, less than 5 nM and 7.02.
As for `N#CC[C@@H](C1CCC1)n1cc(-c2ncnc3[nH]ccc23)c(N)n1` [Example 28, (S)-3-(3-amino-4-(7H-pyrrolo[2,3-d]pyrimidin-4-yl)-1H-pyrazol-1-yl)-3-cyclobutylpropionitrile], the IC50 at ROCK1 and against ROCK2 was less than 5 nM each time. Further, the pIC50 in experiment [1] was 6.92.
Consider `N#CC[C@H](C1CCCCC1)n1cc(-c2ncnc3[nH]ccc23)c(N)n1` [Example 29, (R)-3-(3-amino-4-(7H-pyrrolo[2,3-d]pyrimidin-4-yl)-1H-pyrazol-1-yl)-3-cyclohexylpropionitrile], for which the IC50 against ROCK1 and at ROCK2 was less than 5 nM each time. In addition, the pIC50 in experiment [1] is 6.97. For the same compound, the intraocular pressure entry in experiment [2] is “significantly decreased”.
Turning to `N#CC[C@@H](C1CCCCC1)n1cc(-c2ncnc3[nH]ccc23)c(N)n1` [Example 30, (S)-3-(3-amino-4-(7H-pyrrolo[2,3-d]pyrimidin-4-yl)-1H-pyrazol-1-yl)-3-cyclohexylpropionitrile], the IC50 against ROCK1 and against ROCK2 was less than 5 nM each time. Moreover, the pIC50 in experiment [1] was 6.74.
